In the NIST ThermoML archive (doi:10.1016/j.fluid.2018.05.033):

Columns and labels:
[1] = refractive index (Na D-line) (dimensionless); xn = mol fraction of the nth substance listed; settings: 101.3 kPa, Liquid, Standard Abbe refractometry
[2] = xn = mol fraction of the nth substance listed; settings: 101.3 kPa, Liquid, Vibrating tube method
[3] = for mass density: 101.33 kPa, Liquid, Vibrating tube method; for Normal melting temperature: Crystal, Phase equilibration
[4] = refractive index (Na D-line) (dimensionless); settings: 101.33 kPa, Liquid, Standard Abbe refractometry

O=S1OCCO1 [1,3,2-dioxathiolane, 2-oxide] + O=C1OCCO1
318.15 K
Settings | mass density, [2] [kg/m3] | refractive index, [1]
x2 = 0.0492 | 1403.48 | 1.4358
x2 = 0.0998 | 1399.66 | 1.435
x2 = 0.2011 | 1391.76 | 1.4333
x2 = 0.3 | 1383.61 | 1.4315
x2 = 0.4024 | 1374.81 | 1.4297
x2 = 0.5005 | 1366.04 | 1.4278
x2 = 0.5994 | 1356.86 | 1.4259
x2 = 0.6997 | 1347.14 | 1.4238
x2 = 0.8005 | 1337 | 1.4217
x2 = 0.8996 | 1326.62 | 1.4196
x2 = 0.9494 | 1321.21 | 1.4185

O=C1OCCO1 [ethylene carbonate]
318.15 K
Settings | mass density [kg/m3] | refractive index
[3] | 1315.7 | –
[4] | – | 1.4172

Settings | Normal melting temperature [°C]
[3] | 37.41

COC(=O)OC [dimethyl carbonate]
298.15 K
Settings | mass density [kg/m3] | refractive index
[3] | 1060.87 | –
[4] | – | 1.3662

Settings | Normal melting temperature [°C]
[3] | 4.37

CCOC(=O)OC [ethyl methyl carbonate]
298.15 K
Settings | mass density [kg/m3] | refractive index
[3] | 1006.88 | –
[4] | – | 1.3754

Settings | Normal melting temperature [°C]
[3] | -51.47

O=C1CCCO1 [γ-butyrolactone]
298.15 K
Settings | mass density [kg/m3] | refractive index
[3] | 1124.97 | –
[4] | – | 1.4349

Settings | Normal melting temperature [°C]
[3] | -41.87

O=S1OCCO1 [1,3,2-dioxathiolane, 2-oxide] + O=C1CCCO1
298.15 K
Settings | mass density, [2] [kg/m3] | refractive index, [1]
x2 = 0.0501 | 1417.36 | 1.4443
x2 = 0.1008 | 1401.19 | 1.4437
x2 = 0.2006 | 1369.54 | 1.4425
x2 = 0.2991 | 1338.59 | 1.4414
x2 = 0.4102 | 1303.97 | 1.4402
x2 = 0.4994 | 1276.38 | 1.4392
x2 = 0.5998 | 1245.54 | 1.4382
x2 = 0.701 | 1214.73 | 1.4373
x2 = 0.7995 | 1184.91 | 1.4365
x2 = 0.9002 | 1154.7 | 1.4356
x2 = 0.9495 | 1139.97 | 1.4353

O=S1OCCO1 [1,3,2-dioxathiolane, 2-oxide] + COC(=O)OC
298.15 K
Settings | mass density, [2] [kg/m3] | refractive index, [1]
x2 = 0.0499 | 1412.39 | 1.4407
x2 = 0.0997 | 1392.6 | 1.4365
x2 = 0.2002 | 1353.25 | 1.4283
x2 = 0.2999 | 1314.96 | 1.4202
x2 = 0.4 | 1277.01 | 1.4123
x2 = 0.4997 | 1239.88 | 1.4044
x2 = 0.6004 | 1202.89 | 1.3965
x2 = 0.6998 | 1166.91 | 1.3889
x2 = 0.8009 | 1130.5 | 1.3811
x2 = 0.9002 | 1095.66 | 1.3737
x2 = 0.9505 | 1078.06 | 1.37

O=S1OCCO1 [1,3,2-dioxathiolane, 2-oxide]
298.15 K
Settings | mass density [kg/m3] | refractive index
[3] | 1432.17 | –
[4] | – | 1.4449

Settings | Normal melting temperature [°C]
[3] | -17.01

O=S1OCCO1 [1,3,2-dioxathiolane, 2-oxide] + CCOC(=O)OC
298.15 K
Settings | mass density, [2] [kg/m3] | refractive index, [1]
x2 = 0.0498 | 1404.65 | 1.4405
x2 = 0.0994 | 1378 | 1.4361
x2 = 0.1993 | 1326.76 | 1.4279
x2 = 0.2998 | 1278.43 | 1.42
x2 = 0.3996 | 1233.17 | 1.4127
x2 = 0.5008 | 1189.88 | 1.4056
x2 = 0.5995 | 1149.94 | 1.3991
x2 = 0.7001 | 1111.21 | 1.3927
x2 = 0.8002 | 1074.73 | 1.3867
x2 = 0.8995 | 1040.17 | 1.381
x2 = 0.9501 | 1023.08 | 1.3782
